Measured values as given in US4044043A, “Derivatives of 9-oxo-13-trans-prostenoic acid esters” (American Cyanamid Company, priority 1975, dated 1977).
Converted amounts (≈) assume the structure as drawn. Read-outs that look alike come from different tables or passages of the source.

Key:
diastolic blood pressure = test: Prostaglandin-like hypotensive activity in anesthetized rats (minimal dose for about 10 mm. decrease in diastolic blood pressure); format: in vivo, Male Wistar strain rats; conditions: Rattus norvegicus; intravenous; decrease of about 10 mm. in diastolic blood pressure
Outline: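 Male Wistar rats (~250 g), pentobarbital 30 mg./kg. i.v. and hexamethonium 2 mg./kg. i.v., iliac artery cannulated for blood pressure. Compounds in saline-Tween 80 given i.v. at 0.1–10.0 mg./kg.; value is the minimal dose giving ~10 mm. drop in diastolic pressure.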

[1] = system: Mycobacterium smegmatis ATCC 606; test: agar-dilution streak-plate antimicrobial assay; format: cell-based; conditions: Mycolicibacterium smegmatis, ATCC606, read-out: Minimal inhibitory conc. (6)
Outline: (§1)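 Test solutions at 2.5 mg/ml were two-fold serially diluted, and 1 ml of each was mixed into 9 ml warm nutrient agar, with bacterial and fungal media kept separate. Overnight broth cultures or saline spore suspensions were streaked by loop. MIC was the lowest concentration (µg/ml) giving complete visible growth inhibition.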

[2] = system: Staphylococcus aureus Rose ATCC 14154; test: agar-dilution streak-plate antimicrobial assay; format: cell-based; conditions: ATCC14154, read-out: Minimal inhibitory conc. (7)
Outline: as §1

[3] = system: Streptococcus pyogenes C 203; test: agar-dilution streak-plate antimicrobial assay; format: cell-based; conditions: C203, read-out: Minimal inhibitory conc. (8)
Outline: as §1

[4] = system: Trichophyton mentagrophytes E 11; test: agar-dilution streak-plate antimicrobial assay; format: cell-based; conditions: E11, read-out: Minimal inhibitory conc. (4)
Outline: as §1

[5] = system: Trichophyton tonsurans NIH 662; test: agar-dilution streak-plate antimicrobial assay; format: cell-based; conditions: NIH662, read-out: Minimal inhibitory conc. (3)
Outline: as §1

[6] = system: Microsporum canis ATCC 10214; test: agar-dilution streak-plate antimicrobial assay; format: cell-based; conditions: ATCC10214, read-out: Minimal inhibitory conc. (1)
Outline: as §1

[7] = system: Microsporum gypseum ATCC 14683; test: agar-dilution streak-plate antimicrobial assay; format: cell-based; conditions: Nannizzia gypsea, ATCC14683, read-out: Minimal inhibitory conc. (2)
Outline: as §1

Trichophyton rubrum E 97 = test: agar-dilution streak-plate antimicrobial assay; format: cell-based; conditions: E97, read-out: Minimal inhibitory conc. (5)
Outline: as §1

gastric acid secretion = test: Inhibition of basal Gastric Acid Secretion (Acute Gastric Fistula Rat); format: in vivo, Female Sprague-Dawley rats; conditions: 10 mg./kg. intraduodenal
Outline: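 Fasted (18-24 h) female Sprague-Dawley rats (140-160 g) with acute gastric fistula; compound given intraduodenally in 0.5% methocel/0.4% Tween 80/saline. Gastric juice collected at 60 and 120 min after a discarded 30-min sample, titrated with 0.01N NaOH to pH 7.0; percent inhibition of acid output versus controls, three rats per group.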

[8] = 2 h, B: 120 minute collection, read-out: % Inhibition Total Acid Output
[9] = 2 h, B: 120 minute collection, read-out: % Inhibition Total Acidity

| MIC [1] | MIC [2] | MIC [3] | MIC [4] | MIC [5] | MIC [6] | MIC [7] | MIC (Trichophyton rubrum E 97) | SMILES | minimal effective dose (diastolic blood pressure) | inhibition in vivo at 10 mg/kg (gastric acid secretion; 1 h, A: 60 minute collection, read-out: % Inhibition Total Acid Output) | inhibition in vivo at 10 mg/kg (gastric acid secretion; 1 h, A: 60 minute collection, read-out: % Inhibition Total Acidity) | inhibition in vivo at 10 mg/kg (gastric acid secretion; [8]) | inhibition in vivo at 10 mg/kg (gastric acid secretion; [9]) |
| --- | --- | --- | --- | --- | --- | --- | --- | --- | --- | --- | --- | --- | --- |
| 62 µg/mL (≈ 201 µM) | 250 µg/mL (≈ 810 µM) | 62 µg/mL (≈ 201 µM) | 25 µg/mL (≈ 81 µM) | 25 µg/mL (≈ 81 µM) | 50 µg/mL (≈ 162 µM) | 50 µg/mL (≈ 162 µM) | 50 µg/mL (≈ 162 µM) | CCCCC/C=C/[C@H]1CCC(=O)[C@@H]1CCCCCCC(=O)O (relative stereo) [9-oxo-20-nor-13-trans-prostenoic acid] | 0.5 to 1 mg/kg |  |  |  |  |
| 62 µg/mL (≈ 192 µM) | 250 µg/mL (≈ 775 µM) | 62 µg/mL (≈ 192 µM) | 50 µg/mL (≈ 155 µM) | 50 µg/mL (≈ 155 µM) | 50 µg/mL (≈ 155 µM) | 50 µg/mL (≈ 155 µM) | 250 µg/mL (≈ 775 µM) | CCCCCC/C=C/[C@H]1CCC(=O)[C@@H]1CCCCCCC(=O)O (relative stereo) [9-oxo-13-trans-prostenoic acid] | 0.4 mg/kg |  |  |  |  |
|  |  | 250 µg/mL (≈ 892 µM) | 250 µg/mL (≈ 892 µM) | 250 µg/mL (≈ 892 µM) |  | 250 µg/mL (≈ 892 µM) |  | CCC/C=C/[C@H]1CCC(=O)[C@@H]1CCCCCCC(=O)O (relative stereo) [9-oxo-18,19,20-trinor-13-trans-prostenoic acid] |  | 55% | 20% | 55% | 52% |
| 62 µg/mL (≈ 201 µM) | 250 µg/mL (≈ 810 µM) | 62 µg/mL (≈ 201 µM) | 25 µg/mL (≈ 81 µM) | 25 µg/mL (≈ 81 µM) | 50 µg/mL (≈ 162 µM) | 50 µg/mL (≈ 162 µM) | 50 µg/mL (≈ 162 µM) | CC(C)CC/C=C/[C@@H]1CCC(=O)[C@H]1CCCCCCC(=O)O (relative stereo) [17-methyl-9-oxo-19,20-dinor-13-trans-prostenoic acid] | 0.5 mg/kg |  |  | 53% | 51% |

The next lines start with the compound.

| SMILES | MIC [1] | MIC [2] | MIC [3] | MIC [4] | MIC [5] | MIC [6] | MIC [7] | MIC (Trichophyton rubrum E 97) | minimal effective dose (diastolic blood pressure) | inhibition in vivo at 10 mg/kg (gastric acid secretion; 1 h, A: 60 minute collection, read-out: % Inhibition Total Acid Output) | inhibition in vivo at 10 mg/kg (gastric acid secretion; 1 h, A: 60 minute collection, read-out: % Inhibition Total Acidity) | inhibition in vivo at 10 mg/kg (gastric acid secretion; [8]) | inhibition in vivo at 10 mg/kg (gastric acid secretion; [9]) |
| --- | --- | --- | --- | --- | --- | --- | --- | --- | --- | --- | --- | --- | --- |
| CCCCCC/C=C/[C@@H]1CCCC(=O)[C@H]1CCCCCCC(=O)O (relative stereo) [9-oxo-10a-homo-13-trans-prostenoic acid] | 25 µg/mL (≈ 74.3 µM) | 100 µg/mL (≈ 297 µM) | 10 µg/mL (≈ 29.7 µM) | 100 µg/mL (≈ 297 µM) | 100 µg/mL (≈ 297 µM) |  |  |  | 0.2 mg/kg |  |  |  |  |
| CC/C=C\CC/C=C/[C@@H]1CCC(=O)[C@H]1CCCCCCC(=O)O (relative stereo) [9-oxo-13-trans-17-cis-prostadienoic acid] | 62 µg/mL (≈ 193 µM) | 250 µg/mL (≈ 780 µM) | 62 µg/mL (≈ 193 µM) | 62 µg/mL (≈ 193 µM) | 62 µg/mL (≈ 193 µM) | 125 µg/mL (≈ 390 µM) | 62 µg/mL (≈ 193 µM) | 125 µg/mL (≈ 390 µM) | 0.2 mg/kg |  |  |  |  |
| O=C(O)CCCCCC[C@H]1C(=O)CC[C@@H]1/C=C/CCCCCCCl (relative stereo) [20-chloro-9-oxo-13-trans-prostenoic acid] | 250 µg/mL (≈ 700 µM) | 250 µg/mL (≈ 700 µM) | 62 µg/mL (≈ 174 µM) | 62 µg/mL (≈ 174 µM) | 16 µg/mL (≈ 44.8 µM) | 250 µg/mL (≈ 700 µM) | 62 µg/mL (≈ 174 µM) | 62 µg/mL (≈ 174 µM) | 0.5 mg/kg |  |  |  |  |
| O=C(O)CCCCCC[C@@H]1C(=O)CC[C@H]1/C=C/CCCCl (relative stereo) [20-chloro-9-oxo-17,18,19-trinor-13-trans-prostenoic acid] |  |  |  | 250 µg/mL (≈ 794 µM) | 250 µg/mL (≈ 794 µM) | 250 µg/mL (≈ 794 µM) | 250 µg/mL (≈ 794 µM) | 250 µg/mL (≈ 794 µM) | 2 to 8 mg/kg |  |  |  |  |
| CCCCCCC/C=C/[C@@H]1CCC(=O)[C@H]1CCCCCCC(=O)O (relative stereo) [20-methyl-9-oxo-13-trans-prostenoic acid] | 25 µg/mL (≈ 74.3 µM) | 50 µg/mL (≈ 149 µM) | 10 µg/mL (≈ 29.7 µM) | 25 µg/mL (≈ 74.3 µM) | 25 µg/mL (≈ 74.3 µM) | 100 µg/mL (≈ 297 µM) | 50 µg/mL (≈ 149 µM) | 100 µg/mL (≈ 297 µM) | 0.5 to 2 mg/kg |  |  |  |  |
